From ChEMBL document CHEMBL5725365, “Tyrosine kinase inhibitors” (2017)

Molecular target: Tyrosine-protein kinase BTK (Homo sapiens, UniProt Q06187)
Experiment: Enzymatic Activity Assay: A Caliper-based kinase assay (Caliper Life Sciences, Hopkinton, Mass.) was used to measure inhibition of BTK kinase activity of a compound of the present disclosure. Serial dilutions of test compounds were incubated with human recombinant BTK (0.5 nM), ATP (16 μM) and a phosphoacceptor peptide substrate FAM-[…]-NH2(1 μM) at room temperature for 3 h. The reaction was then terminated with EDTA, final concentration 20 mM and the phosphorylated reaction product was quantified on a Caliper Desktop Profiler (Caliper LabChip 3000).

Tyrosine-protein kinase BTK, sequence (Q06187 whole entry): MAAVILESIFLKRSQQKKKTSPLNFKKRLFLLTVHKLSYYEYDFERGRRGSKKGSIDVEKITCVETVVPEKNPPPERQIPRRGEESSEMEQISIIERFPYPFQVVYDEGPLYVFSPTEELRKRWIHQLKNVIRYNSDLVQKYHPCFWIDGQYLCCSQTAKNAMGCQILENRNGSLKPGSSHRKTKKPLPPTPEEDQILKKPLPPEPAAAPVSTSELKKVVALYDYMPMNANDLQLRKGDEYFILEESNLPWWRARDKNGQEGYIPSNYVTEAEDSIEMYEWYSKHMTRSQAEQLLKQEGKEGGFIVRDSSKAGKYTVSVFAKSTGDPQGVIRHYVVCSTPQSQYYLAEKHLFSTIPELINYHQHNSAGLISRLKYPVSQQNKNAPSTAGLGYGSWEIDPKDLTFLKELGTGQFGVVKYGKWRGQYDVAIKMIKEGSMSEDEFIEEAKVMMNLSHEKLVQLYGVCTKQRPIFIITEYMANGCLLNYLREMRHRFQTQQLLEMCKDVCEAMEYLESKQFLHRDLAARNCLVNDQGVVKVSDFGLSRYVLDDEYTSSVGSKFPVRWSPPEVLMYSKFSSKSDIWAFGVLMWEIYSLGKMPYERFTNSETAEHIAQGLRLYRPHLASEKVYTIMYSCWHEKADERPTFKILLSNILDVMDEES

Compound: CC(C)(C=C(C#N)C(=O)N1CCC[C@@H](n2c(=O)n(-c3ccc(Oc4ccccc4)cc3)c3c(N)nccc32)C1)C(=O)N1CCN(C2COC2)CC1
- IC50: 24 nM
